Reference: PubChem BioAssay AID1963973 (Molecular Pharmacology Branch, DTP, NCI, 2024)

System: 883617-216-R-J1-PDC tumor spheroids, viability
Experiment: Anticancer human tumor 883617-216-R-J1-PDC patient-derived bladder carcinoma cell line growth inhibition [PI3K]
Conditions: spheroids with HUVEC and MSC; for IC50: curve of first compound; for viability, T/C: stronger effect = lower value
In short: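 Complex 3D spheroids (cancer cells + endothelial HUVEC + mesenchymal stem cells); drug pairs of targeted agent x inavolisib/alpelisib/duvelisib/copanlisib; half-log series from ~Cmax, max 10 microM if Cmax unknown; endpoint viability.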
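Also: spheroids exposed to agents for 7 days before the viability read.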

With `C[C@@H](NC(=O)c1ncnc(N)c1Cl)c1ncc(C(=O)Nc2cc(C(F)(F)F)c(Cl)cn2)s1` + CC(Nc1ncnc2nc[nH]c12)c1cc2cccc(Cl)c2c(=O)n1-c1ccccc1 the IC50 (second compound 0.0316 µM) was over 10 µM, the IC50 (second compound 0.1 µM) was over 10 µM and the IC50 (second compound 0.316 µM) was over 10 µM. It also gave an IC50 (second compound 1 µM) of over 10 µM, an IC50 (second compound 3.16 µM) of over 10 µM and an IC50 (second compound 10 µM) of under 0.0316 µM. The viability, T/C (second compound 0.0316 µM, first compound 0.0316 µM) was 88.8%, the viability, T/C (second compound 0.0316 µM, first compound 0.1 µM) was 87.1% and the viability, T/C (second compound 0.0316 µM, first compound 0.316 µM) was 81.4%. The viability, T/C (second compound 0.0316 µM, first compound 1 µM) was 99.8%, the viability, T/C (second compound 0.0316 µM, first compound 3.16 µM) was 78.1% and the viability, T/C (second compound 0.0316 µM, first compound 10 µM) was 64.8%. For the same molecule, the viability, T/C (second compound 0.1 µM, first compound 0.0316 µM) was 90%, the viability, T/C (second compound 0.1 µM, first compound 0.1 µM) was 85.6% and the viability, T/C (second compound 0.1 µM, first compound 0.316 µM) was 91.3%. For the same molecule, the viability, T/C (second compound 0.1 µM, first compound 1 µM) was 91.8%, the viability, T/C (second compound 0.1 µM, first compound 3.16 µM) was 81.2% and the viability, T/C (second compound 0.1 µM, first compound 10 µM) was 58.2%. For the same molecule, the viability, T/C (second compound 0.316 µM, first compound 0.0316 µM) was 85.5%, the viability, T/C (second compound 0.316 µM, first compound 0.1 µM) was 96.2% and the viability, T/C (second compound 0.316 µM, first compound 0.316 µM) was 90.3%. The viability, T/C (second compound 0.316 µM, first compound 1 µM) was 74%, the viability, T/C (second compound 0.316 µM, first compound 3.16 µM) was 78.4% and the viability, T/C (second compound 0.316 µM, first compound 10 µM) was 76.2%. For the same molecule, the viability, T/C (second compound 1 µM, first compound 0.0316 µM) was 80.3%, the viability, T/C (second compound 1 µM, first compound 0.1 µM) was 82.1% and the viability, T/C (second compound 1 µM, first compound 0.316 µM) was 90.4%. It also gave a viability, T/C (second compound 1 µM, first compound 1 µM) of 74.4%, a viability, T/C (second compound 1 µM, first compound 3.16 µM) of 75.8% and a viability, T/C (second compound 1 µM, first compound 10 µM) of 50.1%. The viability, T/C (second compound 3.16 µM, first compound 0.0316 µM) was 58.3%, the viability, T/C (second compound 3.16 µM, first compound 0.1 µM) was 56.5% and the viability, T/C (second compound 3.16 µM, first compound 0.316 µM) was 60%. For the same molecule, the viability, T/C (second compound 3.16 µM, first compound 1 µM) was 58.2%, the viability, T/C (second compound 3.16 µM, first compound 3.16 µM) was 65.2% and the viability, T/C (second compound 3.16 µM, first compound 10 µM) was 51.7%. For the same molecule, the viability, T/C (second compound 10 µM, first compound 0.0316 µM) was 36.9%, the viability, T/C (second compound 10 µM, first compound 0.1 µM) was 43.9% and the viability, T/C (second compound 10 µM, first compound 0.316 µM) was 45.8%. The viability, T/C (second compound 10 µM, first compound 1 µM) was 44.6%, the viability, T/C (second compound 10 µM, first compound 3.16 µM) was 55.7% and the viability, T/C (second compound 10 µM, first compound 10 µM) was 40.4%.
